Starred links: 1 amine or outer side, 2 acyl side, 3 side chain; linkers in the order of their positions; H or OH if unused. Positions of bridges follow the written chain, without caps; N, C: chain ends. Non-standard residues stand in square brackets, D forms with d. Residues, ends and D or L forms follow the SMILES beside them. *: point of attachment. NH(CH2)5NHDOTA = O=C(O)CN1CCN(CC(=O)O)CCN(CC(=O)NCCCCCN*)CCN(CC(=O)O)CC1; NH(CH2)3NHDOTA = O=C(O)CN1CCN(CC(=O)O)CCN(CC(=O)NCCCN*)CCN(CC(=O)O)CC1; X3 = O=C(O)CN1CCN(CC(=O)O)CCN(CC(=O)NCCCOCCOCCOCCCN*)CCN(CC(=O)O)CC1; DOTA = O=C(O)CN1CCN(CC(=O)O)CCN(CC(=O)*)CCN(CC(=O)O)CC1; mXylylene = c1cc(C[*:1])cc(C[*:2])c1; X2 = O=C(CN1CCC(N[*:1])CC1)[*:2]; Suc = O=C(CCC(=O)[*:2])[*:1]
How the values were obtained:
[1] = Plasma stability assay, mouse plasma; details: mouse plasma, 37°C, 4 h
[2] = molecular target: T1, CAIX-expressing human HT-29 colorectal cancer cells (Homo sapiens, UniProt Q16790); test: FACS binding assay (IC50 determination, competition with tracer 3BP-2776 or 3BP-4149); details: FACS competition on HT-29 cells, Tracer ID 3BP-2776 (10 nM, biotin-labeled), 4° C., 1 hour; read-out: pIC50 category (activity) (converted)
T1 construct: CAIX-expressing human HT-29 colorectal cancer cells; host or cells: HT-29 human colorectal cancer cells
Summary of the method: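 HT-29 cells in FACS buffer (PBS, 1% FCS) at 500.000 cells/ml were exposed to compounds competing with a labelled tracer, with biotinylated compounds detected by 1 μg/mL APC-streptavidin for 30 min on ice. APC/Cy5 median fluorescence was read by flow cytometry and IC50 derived by 4PL fit.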

[3] = molecular target: T2, human carbonic anhydrase IX (hCAIX-Fc) (Homo sapiens, UniProt Q16790); test: Surface plasmon resonance assay with hCAIX-Fc; type: binding; details: 25° C.; for t1/2 category (activity): SPR dissociation half-life, hCAIX-Fc; for Kd: SPR, hCAIX-Fc captured, read-out: pKD category (activity) (converted)
T2 construct: purchased SinoBliological (Sino Biological) 10107-H02H

[4] = molecular target: T3, Recombinant soluble human NEP (Homo sapiens, UniProt P08473); test: Proteolytic stability assay against NEP; type: in vitro ADME; details: 100 ng/mL NEP, 10 μM compound, 37°C
T3 construct: Recombinant soluble human NEP; purchased BioTechne, Wiesbaden, Germany
Method: To assess the stability of compounds against NEP, the compounds were subjected to an in vitro assay based on the protocol described by Edelson et al. (Edelson et al., Pulmonary pharmacology & therapeutics, 2013, 26, 229-238).
Recombinant soluble human NEP (BioTechne, Wiesbaden, Germany) at a concentration of 100 ng/mL was mixed with the compound (10 μM) and a stable internal standard (10 μM) and incubated at 37° C. After several time points, samples were taken and analyzed with LC-MS.
The activity of NEP was examined using a commercially available chromogenic substrate of NEP.

T3 sequence (P08473 52-750 limits assumed): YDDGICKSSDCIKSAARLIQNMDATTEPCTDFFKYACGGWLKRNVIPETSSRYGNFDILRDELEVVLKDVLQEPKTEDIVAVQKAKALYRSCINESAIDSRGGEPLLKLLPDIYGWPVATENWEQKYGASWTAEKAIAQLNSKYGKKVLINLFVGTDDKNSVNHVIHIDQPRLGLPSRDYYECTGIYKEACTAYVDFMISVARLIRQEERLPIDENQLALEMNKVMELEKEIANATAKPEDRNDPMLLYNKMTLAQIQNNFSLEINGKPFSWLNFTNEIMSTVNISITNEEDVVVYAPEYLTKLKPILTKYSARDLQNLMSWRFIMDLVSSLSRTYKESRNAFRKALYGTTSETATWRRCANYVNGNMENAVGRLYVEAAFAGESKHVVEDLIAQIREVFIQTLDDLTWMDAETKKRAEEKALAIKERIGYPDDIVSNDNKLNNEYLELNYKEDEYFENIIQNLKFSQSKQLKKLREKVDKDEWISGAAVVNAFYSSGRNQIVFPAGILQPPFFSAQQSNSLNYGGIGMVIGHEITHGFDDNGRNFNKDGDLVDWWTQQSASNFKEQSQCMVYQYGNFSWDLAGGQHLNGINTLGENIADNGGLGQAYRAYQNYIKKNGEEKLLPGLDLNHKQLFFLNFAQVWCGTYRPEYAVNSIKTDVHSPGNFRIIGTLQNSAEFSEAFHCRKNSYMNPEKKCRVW

SMILES | % intact compound remaining (incubation time) [1] [%] | IC50 [2] [nM] | t1/2 category (activity) [3] | % intact compound remaining after 24 h incubation [4] [%] | Kd [3] [nM]
CC(C)C[C@@H]1NC(=O)[C@H](Cc2c[nH]c3ccccc23)NC(=O)[C@H](CC(=O)O)NC(=O)CNC(=O)[C@H](CCC(=O)O)NC(=O)[C@@H](NC(=O)[C@H](Cc2ccc(O)cc2)NC(=O)[C@@H](NC(=O)CCC(=O)NCCCOCCOCCOCCCNC(=O)CN2CCN(CC(=O)O)CCN(CC(=O)O)CCN(CC(=O)O)CC2)C(C)C)CSCc2cccc(c2)CSC[C@@H](C(N)=O)NC(=O)[C@H](CCC(N)=O)NC(=O)[C@H](Cc2c[nH]c3ccccc23)NC(=O)[C@H]([C@@H](C)O)NC1=O [3BP-2959] ({X3-Suc}-VYCEGDWLTWQC-NH2; linker 3-12 via mXylylene) | >95 | < 10 | D (t1/2≤2.0 minutes) | >95 | –
CC(=O)N[C@@H](CCCCNC(=O)CN1CCN(CC(=O)O)CCN(CC(=O)O)CCN(CC(=O)O)CC1)C(=O)N[C@H](C(=O)N[C@@H](Cc1ccc(O)cc1)C(=O)N[C@H]1CSCc2cccc(c2)CSC[C@@H](C(N)=O)NC(=O)[C@H](C)NC(=O)[C@H](Cc2c[nH]c3ccccc23)NC(=O)[C@H]([C@@H](C)O)NC(=O)[C@H](CC(C)C)NC(=O)[C@H](Cc2c[nH]c3ccccc23)NC(=O)[C@H](CC(=O)O)NC(=O)[C@H]2CCCN2C(=O)[C@H](CCC(=O)O)NC1=O)C(C)C [3BP-3427] (Ac-K(DOTA)VYCE[dP]DWLTWAC-NH2; linker 4-13 via mXylylene) | >95 | < 10 | – | >95 | –
CC(C)C[C@@H]1NC(=O)[C@H](Cc2c[nH]c3ccccc23)NC(=O)[C@H](CC(=O)O)NC(=O)[C@H]2CCCN2C(=O)[C@H](CCC(=O)O)NC(=O)[C@@H](NC(=O)[C@H](Cc2ccc(O)cc2)NC(=O)[C@@H](NC(=O)CN2CCC(NC(=O)CN3CCN(CC(=O)O)CCN(CC(=O)O)CCN(CC(=O)O)CC3)CC2)C(C)C)CSCc2cccc(c2)CSC[C@@H](C(N)=O)NC(=O)[C@H](C)NC(=O)[C@H](Cc2c[nH]c3ccccc23)NC(=O)[C@H]([C@@H](C)O)NC1=O [3BP-3432] ({DOTA}-[X2]VYCE[dP]DWLTWAC-NH2; linker 4-13 via mXylylene) | 98 | < 10 | A (t1/2>15.0 minutes) | >95 | < 10
CC(=O)N[C@H](C(=O)N[C@@H](Cc1ccc(O)cc1)C(=O)N[C@H]1CSCc2cccc(c2)CSC[C@@H](C(=O)NCCCCCNC(=O)CN2CCN(CC(=O)O)CCN(CC(=O)O)CCN(CC(=O)O)CC2)NC(=O)[C@H](C)NC(=O)[C@H](Cc2c[nH]c3ccccc23)NC(=O)[C@H]([C@@H](C)O)NC(=O)[C@H](CC(C)C)NC(=O)[C@H](Cc2c[nH]c3ccccc23)NC(=O)[C@H](CC(=O)O)NC(=O)[C@H]2CCCN2C(=O)[C@H](CCC(=O)O)NC1=O)C(C)C [3BP-3434, Ac-Val-Tyr-[Cys(3MeBn)-Glu-pro-Asp-Trp-Leu-Thr-Trp-Ala-Cys]-Ape-NH-DOTA] (Ac-VYCE[dP]DWLTWAC-{NH(CH2)5NHDOTA}; linker 3-12 via mXylylene) | >95 | < 10 | – | >95 | –
CC(=O)N[C@H](C(=O)N[C@@H](Cc1ccc(O)cc1)C(=O)N[C@H]1CSCc2cccc(c2)CSC[C@@H](C(N)=O)NC(=O)[C@H](CCC(=O)NCCCNC(=O)CN2CCN(CC(=O)O)CCN(CC(=O)O)CCN(CC(=O)O)CC2)NC(=O)[C@H](Cc2c[nH]c3ccccc23)NC(=O)[C@H]([C@@H](C)O)NC(=O)[C@H](CC(C)C)NC(=O)[C@H](Cc2c[nH]c3ccccc23)NC(=O)[C@H](CC(=O)O)NC(=O)[C@H]2CCCN2C(=O)[C@H](CCC(=O)O)NC1=O)C(C)C [3BP-3478, Ac-Val-Tyr-[Cys(3MeBn)-Glu-pro-Asp-Trp-Leu-Thr-Trp-Glu(NH-Apr-DOTA)-Cys]-NH2] (Ac-VYCE[dP]DWLTWE(NH(CH2)3NHDOTA)C-NH2; linker 3-12 via mXylylene) | >95 | < 10 | A (t1/2>15.0 minutes) | 63 | < 10
